Experiments:
human GPR119 (hGPR119) = target: T1, human GPR119 (hGPR119) (Homo sapiens, UniProt Q8TDV5); assay: Specific (agonistic) activity in vitro, cAMP increase (Lance Ultra cAMP kit) in CHO-K1 cells expressing hGPR119; type: cell-based; conditions: for EC50: CHO-K1 hGPR119, cAMP
T1 construct: expressed in transfected cells; host or cells: CHO-K1 (Chinese hamster ovary)
T1 sequence (Q8TDV5 1-335): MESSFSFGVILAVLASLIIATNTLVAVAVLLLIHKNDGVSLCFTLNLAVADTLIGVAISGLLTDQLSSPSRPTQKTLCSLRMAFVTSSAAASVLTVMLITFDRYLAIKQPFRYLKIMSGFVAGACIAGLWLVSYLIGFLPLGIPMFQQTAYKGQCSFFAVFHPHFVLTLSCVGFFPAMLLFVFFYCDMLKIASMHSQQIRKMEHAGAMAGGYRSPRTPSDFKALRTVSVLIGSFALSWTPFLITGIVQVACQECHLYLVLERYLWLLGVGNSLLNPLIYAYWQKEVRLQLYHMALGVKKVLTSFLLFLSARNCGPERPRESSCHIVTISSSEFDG
Experimental: Specific activity was evaluated using an immortalized Chinese hamster ovary cell line CHO-K1 steadily expressed human GPR119 (hGPR119). The cells (10^7 ml^−1) were cultured in Dulbecco's modified Eagle medium (DMEM) modified with 10% fetal bovine serum (FBS), revolved continuously at 50 rpm at 37°C in 8% CO2 for 3–4 days. Lance Ultra cAMP kit (Perkin Elmer, Waltham, MA, USA) was chosen as the experimental platform ([13]). The experiments were performed in accordance to the manufacturer's instructions. The agonistic activity of the test compounds was estimated by the increase in intracellular cAMP concentration, assuming the hGPR119 activation is followed by the activation of cellular adenylate cyclase, which increases intracellular cAMP levels ([4], [14]). Known agonists of hGPR119 receptors were used as positive controls to determine the maximal possible effect (MPE). The activity of test compounds was expressed in terms of median effective concentration (EC50).

[1] = tested on: male Wistar rats with streptozotocin-nicotinamide induced type 2 diabetes mellitus (STZ-NA T2D); design: method as in PMID 28736546; conditions: 1 mg/kg/day orally for 28 day, ref [11]; cited from earlier work

O=S1(=O)COc2cc(-c3ccc(OCC4CCN(c5ncc(Cl)cn5)CC4)c(F)c3)ccc21 [ZB-16]
EC50 (human GPR119 (hGPR119)): 7.25 nM
EC50 (human GPR119 (hGPR119); values of the text): 7.3 to 9.7 nM
type of agonism on GPR119 (human GPR119 (hGPR119); response normalized to control substance (Arena)): complete agonist
blood glucose levels under fasting conditions [1]: decreased
glucose utilization [1]: improved
stimulated secretion of GLP-1 and insulin [1]: increase
